From US20180263992A1, “TREATMENT OF NEURODEGENERATIVE DISEASES” (BENEVOLENTAI BIO LIMITED, priority 2015, published 2018)
Blank lines part the entries; values can stand above or below the compound they belong to.

What was measured:
[1] = Entry of Gefitinib into the brain with prior P-gp inhibitor; assay type: in vivo, C57BL/6 mice
ALS = conditions: cited from earlier work
[2] = in vivo; cited from earlier work
human cancer cells = conditions: cited from earlier work
[3] = test system: SOD1G93A mouse model of ALS; conditions: cited from earlier work
[4] = multi-dose animal studies; cited from earlier work
P-glycoprotein (P-gp) = P-glycoprotein (P-gp) (Homo sapiens, UniProt P08183); conditions: Togashi et al. 2012; cited from earlier work
P-glycoprotein (P-gp), sequence (P08183 whole entry): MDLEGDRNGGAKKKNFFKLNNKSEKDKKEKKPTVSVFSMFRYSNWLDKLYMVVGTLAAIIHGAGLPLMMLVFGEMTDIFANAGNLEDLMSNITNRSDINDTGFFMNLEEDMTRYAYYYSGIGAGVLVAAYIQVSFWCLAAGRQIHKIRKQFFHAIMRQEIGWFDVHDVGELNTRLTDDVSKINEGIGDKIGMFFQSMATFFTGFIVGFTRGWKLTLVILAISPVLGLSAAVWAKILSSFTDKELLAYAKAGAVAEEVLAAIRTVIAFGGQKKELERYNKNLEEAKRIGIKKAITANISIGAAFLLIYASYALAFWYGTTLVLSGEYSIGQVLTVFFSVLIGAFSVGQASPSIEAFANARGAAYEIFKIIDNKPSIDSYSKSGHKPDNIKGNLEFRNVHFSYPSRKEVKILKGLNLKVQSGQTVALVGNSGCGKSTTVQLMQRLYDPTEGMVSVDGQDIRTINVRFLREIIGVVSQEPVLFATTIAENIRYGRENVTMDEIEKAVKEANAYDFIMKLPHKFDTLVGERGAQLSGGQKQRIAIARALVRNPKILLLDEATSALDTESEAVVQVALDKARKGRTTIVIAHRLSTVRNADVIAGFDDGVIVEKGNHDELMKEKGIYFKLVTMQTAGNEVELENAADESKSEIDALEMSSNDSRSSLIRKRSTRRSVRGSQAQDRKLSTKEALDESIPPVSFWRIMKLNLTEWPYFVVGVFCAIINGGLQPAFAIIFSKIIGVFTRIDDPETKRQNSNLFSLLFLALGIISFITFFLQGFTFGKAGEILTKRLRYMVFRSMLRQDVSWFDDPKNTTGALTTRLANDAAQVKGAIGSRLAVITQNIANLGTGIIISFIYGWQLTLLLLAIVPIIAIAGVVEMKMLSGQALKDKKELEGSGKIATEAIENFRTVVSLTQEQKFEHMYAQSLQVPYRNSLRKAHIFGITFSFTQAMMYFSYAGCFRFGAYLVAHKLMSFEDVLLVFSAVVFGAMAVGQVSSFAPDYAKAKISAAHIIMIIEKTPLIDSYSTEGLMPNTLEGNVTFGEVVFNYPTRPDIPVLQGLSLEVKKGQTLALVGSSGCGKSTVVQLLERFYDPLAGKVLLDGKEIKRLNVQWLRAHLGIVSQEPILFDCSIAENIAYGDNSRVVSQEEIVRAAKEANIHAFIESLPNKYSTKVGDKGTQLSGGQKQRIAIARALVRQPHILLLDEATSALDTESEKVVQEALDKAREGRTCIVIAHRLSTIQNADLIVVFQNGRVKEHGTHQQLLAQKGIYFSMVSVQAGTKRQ

[5] = in vivo; cited from earlier work; remark: listed apart in the source
[6] = test system: murine Hb9-GFP+ motor neurons co-cultured with ALS patient iAstrocytes; assay: ALS patient iAstrocyte / mouse Hb9-GFP+ motor neuron co-culture, motor neuron survival; assay type: cell-based, human iAstrocytes, mouse motor neurons; conditions: iAstrocytes of three ALS patients pre-treated 24 h; survival at 72 h vs 24 h, normalised to DMSO control
[7] = phase I trials; cited from earlier work

CNS penetration of Gefitinib ([1]; Elacridar 100 mg/kg po before Gefitinib 30 mg/kg po, 2 h post dose): significantly increased | CNS penetration of Gefitinib ([1]; Elacridar 100 mg/kg po before Gefitinib 100 mg/kg po, 2 h post dose): significantly increased
Compound: COc1cc2c(cc1OC)CN(CCc1ccc(NC(=O)c3cccc4c(=O)c5cccc(OC)c5[nH]c34)cc1)CC2 [Elacridar]

Compound: Nc1nc2ccc(OC(F)(F)F)cc2s1 [Riluzole]
prolongs life (ALS; ALS): 2-3 months | relief of symptoms (ALS; ALS): does not relieve symptoms | undesirable side effects (ALS; in vivo): nausea and fatigue

CNS penetration of Gefitinib ([1]; Everolimus 10 mg/kg ip): did not appear to have any effect | plasma exposure of Gefitinib ([1]; Everolimus 10 mg/kg ip): increased
Compound: CO[C@H]1C[C@@H]2CC[C@@H](C)[C@@](O)(O2)C(=O)C(=O)N2CCCC[C@H]2C(=O)O[C@H]([C@H](C)C[C@@H]2CC[C@@H](OCCO)[C@H](OC)C2)CC(=O)[C@H](C)/C=C(\C)[C@@H](O)[C@@H](OC)C(=O)[C@H](C)C[C@H](C)/C=C/C=C/C=C/1C [Everolimus]

Compound: C#Cc1cccc(Nc2ncnc3cc(OCCOC)c(OCCOC)cc23)c1 [erlotinib]
undesirable side effects [2]: skin irritation and diarrhea | cell-cycle progression (human cancer cells): blocks cell-cycle progression in the G1 phase | concentration inhibiting EGF-dependent cell proliferation (human cancer cells): nanomolar concentrations | lifespan [3]: failed to extend lifespan | modulation of markers for astrocytes and microglia [3]: did not correlate with a modulation of markers for astrocytes and microglia | penetration into the central nervous system [3]: penetrated into the central nervous system | protection of motor synapses [3]: did not protect motor synapses | symptom delay (readouts of disease onset and progression) [3]: modest yet statistically significant symptom delay

Compound: C=CC(=O)Nc1cc2c(Nc3ccc(F)c(Cl)c3)ncnc2cc1OCCCN1CCOCC1 [canertinib]
toxicity [4]: minimal toxicity

Compound: COc1cc2ncnc(Nc3ccc(F)c(Cl)c3)c2cc1OCCCN1CCOCC1 [gefitinib, N-(3-chloro-4-fluoro-phenyl)-7-methoxy-6-(3-morpholin-4-ylpropoxy)quinazolin-4-amine]
P-glycoprotein (P-gp) substrate status (P-glycoprotein (P-gp)): substrate | biological half-life [5]: 28 hours | motor neuron survival [6]: dose-dependent increase in motor neuron survival | maximal tolerated dosage [7]: 700 mg/day
